This passage reports IC50 results from ChEMBL document CHEMBL4138216, “Design, synthesis and structure-activity relationship of a focused library of β-phenylalanine derivatives as novel eEF2K inhibitors with apoptosis-inducing mechanisms in breast cancer” (Eur J Med Chem, 2018).

Assay [1] addresses T1, Eukaryotic elongation factor 2 kinase (Homo sapiens, UniProt O00418).
T1 sequence (O00418 whole entry): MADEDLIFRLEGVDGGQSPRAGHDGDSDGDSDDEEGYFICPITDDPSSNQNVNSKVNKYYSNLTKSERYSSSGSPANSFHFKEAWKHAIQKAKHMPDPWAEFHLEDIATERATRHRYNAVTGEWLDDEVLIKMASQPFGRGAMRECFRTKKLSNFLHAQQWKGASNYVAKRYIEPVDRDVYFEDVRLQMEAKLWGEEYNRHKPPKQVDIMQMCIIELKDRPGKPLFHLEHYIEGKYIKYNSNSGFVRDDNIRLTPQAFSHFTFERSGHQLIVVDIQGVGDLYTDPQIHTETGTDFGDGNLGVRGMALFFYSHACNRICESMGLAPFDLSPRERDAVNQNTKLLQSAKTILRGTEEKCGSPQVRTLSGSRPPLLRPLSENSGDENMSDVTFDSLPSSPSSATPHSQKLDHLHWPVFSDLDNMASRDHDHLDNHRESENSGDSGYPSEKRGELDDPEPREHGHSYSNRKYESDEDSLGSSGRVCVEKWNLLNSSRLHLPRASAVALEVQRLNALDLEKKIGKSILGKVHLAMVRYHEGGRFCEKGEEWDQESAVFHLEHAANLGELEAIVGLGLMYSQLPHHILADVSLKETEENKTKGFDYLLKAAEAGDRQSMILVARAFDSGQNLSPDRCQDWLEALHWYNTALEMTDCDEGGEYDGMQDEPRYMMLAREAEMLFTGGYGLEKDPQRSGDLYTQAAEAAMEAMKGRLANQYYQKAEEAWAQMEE
The assay can be described thus: Inhibition of eEF2K (unknown origin) using peptide MH-1 as substrate after 2 hrs by ADP-Glo luminescent assay. (In general: ADP-Glo turns the ADP formed in a reaction into a luminescent signal.)

A further assay relates to MDA-MB-436. The assay can be described thus: Antiproliferative activity against human MDA-MB-436 cells assessed as decrease in cell viability after 24 hrs by MTT assay. In kind it is functional, cell-based. As to conditions: MDA-MB-436, 24 h. In general terms: Tetrazolium assays rely on reduction of a dye to a coloured formazan, in cell work by metabolically active cells.

In another assay the test system is MDA-MB-231. As to the kind of experiment: cells. As to conditions: Homo sapiens, MDA-MB-231, 24 h.

Description for MDA-MB-231: Antiproliferative activity against human MDA-MB-231 cells assessed as decrease in cell viability after 24 hrs by MTT assay

A word on the IC50: it is the concentration needed to halve the response being measured. Take `O=C(O)CC(NC(=O)c1cccc(Br)c1)c1ccccc1` (configuration not stated): the results for the IC50 (in assay [1]; in the assay on MDA-MB-436; in the assay on MDA-MB-231) were more than 50 µM, more than 100 µM and more than 100 µM, respectively.
Turning to `O=C(O)CC(NC(=O)c1ccc(Cl)cc1Cl)c1ccccc1F` (configuration not stated), the IC50 in assay [1] is 33.7 µM; in the assay on MDA-MB-436, more than 100 µM; in the assay with MDA-MB-231 it was 89.3 µM.
For `O=C(O)CC(NC(=O)c1cccc(Br)c1)c1ccc(Cl)cc1Cl` (configuration not stated), in that order: 28.4 µM, more than 100 µM and 82.5 µM.
In the case of `COc1ccc(C(=O)NC(CC(=O)O)c2ccc(C(C)(C)C)cc2)cc1` (configuration not stated), the half-inhibitory concentration (IC50) in assay [1] is 47.9 µM; with MDA-MB-436 it was more than 100 µM; in the assay on MDA-MB-231 it was more than 100 µM.
As to `O=C(O)CC(NS(=O)(=O)c1ccccc1)c1ccc(Cl)cc1Cl` (configuration not stated), the IC50 in assay [1] amounted to 33.4 µM; with MDA-MB-436, 59 µM; with MDA-MB-231 it was 57.8 µM.
For `O=C(O)CC(NS(=O)(=O)c1ccccc1)c1ccccc1F` (configuration not stated), in that order: more than 50 µM, more than 100 µM and more than 100 µM.
Regarding `CC(C)(C)c1ccc(C(CC(=O)O)NC(=O)c2ccc(F)cc2)cc1` (configuration not stated), the IC50 in assay [1] is 31.6 µM; in the assay on MDA-MB-436 it was more than 100 µM; in the assay with MDA-MB-231, 87.6 µM.
For `O=C(O)CC(NC(=O)c1ccc(Cl)cc1Cl)c1ccc(Cl)cc1Cl` (configuration not stated), in that order: 19.9 µM, 57.3 µM and 49.2 µM.
Take `CC(C)(C)c1ccc(C(CC(=O)O)NS(=O)(=O)c2ccccc2)cc1` (configuration not stated): the results for the IC50 (in assay [1]; in the assay on MDA-MB-436; in the assay on MDA-MB-231) were more than 50 µM, more than 100 µM and more than 100 µM, respectively.
Consider `CC(C)(C)c1ccc(S(=O)(=O)NC(CC(=O)O)c2ccccc2)cc1` (configuration not stated), for which the IC50 is more than 50 µM in assay [1], more than 100 µM in the assay on MDA-MB-436 and more than 100 µM in the assay on MDA-MB-231.
`O=C(O)CC(NS(=O)(=O)c1cccc([N+](=O)[O-])c1)c1ccccc1` (configuration not stated): the results for the IC50 (in assay [1]; with MDA-MB-436; in the assay on MDA-MB-231) were more than 50 µM, more than 100 µM and more than 100 µM, respectively.
Turning to `COc1ccc(C(=O)NC(CC(=O)O)c2ccc(Cl)cc2Cl)cc1` (configuration not stated), the IC50 in assay [1] was 44.4 µM; in the assay on MDA-MB-436, more than 100 µM; in the assay on MDA-MB-231, more than 100 µM.
For the compound `COc1ccccc1S(=O)(=O)NC(CC(=O)O)c1ccc(C(C)(C)C)cc1` (configuration not stated), the values for the IC50 (in assay [1]; with MDA-MB-436; in the assay on MDA-MB-231) were more than 50 µM, more than 100 µM and more than 100 µM, respectively.
As for `O=C(O)CC(NC(=O)c1ccc(F)cc1)c1ccccc1F` (configuration not stated), the IC50 in assay [1] was 36.7 µM; with MDA-MB-436, more than 100 µM; in the assay on MDA-MB-231, 72.3 µM.
The matching figures for `O=C(O)CC(NC(=O)c1ccc(C(F)(F)F)cc1)c1ccc(Cl)cc1Cl` (configuration not stated): 11.7 µM, 44.1 µM and 39.1 µM.
For `O=C(O)CC(NS(=O)(=O)c1ccc(F)cc1)c1ccccc1` (configuration not stated), in that order: 31.2 µM, more than 100 µM and 88.4 µM.
For `N#Cc1ccc(S(=O)(=O)NC(CC(=O)O)c2ccccc2)cc1` (configuration not stated), in that order: 18.7 µM, 59.3 µM and 48.7 µM.
Regarding `O=C(O)CC(NS(=O)(=O)c1cc(F)cc(F)c1)c1ccccc1F` (configuration not stated), the IC50 worked out at 19.4 µM in assay [1], 89.3 µM in the assay with MDA-MB-436 and 73.5 µM in the assay with MDA-MB-231.
The matching figures for `O=C(O)CC(NS(=O)(=O)c1ccccc1Br)c1ccc(Cl)cc1Cl` (configuration not stated): more than 50 µM, more than 100 µM and more than 100 µM.
For `O=C(O)CC(NS(=O)(=O)c1cccc([N+](=O)[O-])c1)c1ccc(Cl)cc1Cl` (configuration not stated), in that order: 44.5 µM, more than 100 µM and 77.8 µM.
Consider `CC(C)(C)c1ccc(C(CC(=O)O)NS(=O)(=O)c2ccc(OC(F)(F)F)cc2)cc1` (configuration not stated), for which the IC50 in assay [1] was more than 50 µM; with MDA-MB-436 it was more than 100 µM; with MDA-MB-231, more than 100 µM.
As to `O=C(O)CC(NS(=O)(=O)c1ccccc1)c1ccccc1` (configuration not stated), the IC50 in assay [1] was more than 50 µM; with MDA-MB-436, more than 100 µM; with MDA-MB-231 it was more than 100 µM.
With `O=C(O)CC(NS(=O)(=O)c1ccc(OC(F)(F)F)cc1)c1ccccc1` (configuration not stated), the IC50 in assay [1] is more than 50 µM; in the assay with MDA-MB-436 it was more than 100 µM; in the assay on MDA-MB-231, more than 100 µM.
As to `O=C(O)CC(NS(=O)(=O)c1ccccc1Br)c1ccccc1` (configuration not stated), the IC50 is more than 50 µM in assay [1], more than 100 µM in the assay on MDA-MB-436 and more than 100 µM with MDA-MB-231.
Consider `O=C(O)CC(NS(=O)(=O)c1ccc(C(F)(F)F)cc1)c1ccccc1` (configuration not stated), for which the figures for the IC50 (in assay [1]; with MDA-MB-436; in the assay with MDA-MB-231) were 19.6 µM, 54.7 µM and 56.1 µM, respectively.
The matching figures for `O=C(O)CC(NS(=O)(=O)c1cc(F)cc(F)c1)c1ccc(Cl)cc1Cl` (configuration not stated): 12.5 µM, 49.6 µM and 35.7 µM.
Consider `CC(C)(C)c1ccc(C(CC(=O)O)NC(=O)c2ccc(Cl)cc2Cl)cc1` (configuration not stated), for which the IC50 in assay [1] was 23.8 µM; with MDA-MB-436 it was more than 100 µM; with MDA-MB-231, 67.8 µM.
The matching figures for `CC(C)(C)c1ccc(C(CC(=O)O)NC(=O)c2c(Cl)cccc2Cl)cc1` (configuration not stated): more than 50 µM, more than 100 µM and more than 100 µM.
The matching figures for `COc1ccccc1C(=O)NC(CC(=O)O)c1ccccc1` (configuration not stated): more than 50 µM, more than 100 µM and more than 100 µM.
The matching figures for `COc1ccccc1C(=O)NC(CC(=O)O)c1ccc(Cl)cc1Cl` (configuration not stated): more than 50 µM, more than 100 µM and more than 100 µM.
As for `N#Cc1ccc(S(=O)(=O)NC(CC(=O)O)c2ccccc2F)cc1` (configuration not stated), the IC50 was found to be 27.5 µM in assay [1], 77.7 µM with MDA-MB-436 and 69.7 µM in the assay with MDA-MB-231.
With `CC(C)(C)c1ccc(C(CC(=O)O)NC(=O)c2ccc(C(F)(F)F)cc2)cc1` (configuration not stated), the IC50 in assay [1] was 22.6 µM; in the assay on MDA-MB-436, 82.3 µM; in the assay with MDA-MB-231 it was 78.8 µM.
The matching figures for `COc1ccccc1C(=O)NC(CC(=O)O)c1ccc(C(C)(C)C)cc1` (configuration not stated): more than 50 µM, more than 100 µM and more than 100 µM.
For `O=C(O)CC(NC(=O)c1c(Cl)cccc1Cl)c1ccc(Cl)cc1Cl` (configuration not stated), in that order: more than 50 µM, more than 100 µM and more than 100 µM.
For the compound `CNC(=O)c1cc(Oc2ccc(NC(=O)Nc3ccc(Cl)c(C(F)(F)F)c3)cc2)ccn1` [SORAFENIB], the IC50 in the assay with MDA-MB-436 was found to be 4.2 µM; in the assay on MDA-MB-231, 2.8 µM.
`O=C(O)CC(NC(=O)c1c(Cl)cccc1Cl)c1ccccc1` (configuration not stated): the IC50 was more than 50 µM in assay [1], more than 100 µM in the assay on MDA-MB-436 and more than 100 µM with MDA-MB-231.
As to `O=C(O)CC(NS(=O)(=O)c1cc(F)cc(F)c1)c1ccccc1` (configuration not stated), the IC50 turned out to be 37.8 µM in assay [1], 69.4 µM in the assay on MDA-MB-436 and 79.3 µM in the assay with MDA-MB-231.
The matching figures for `O=C(O)CC(NC(=O)c1ccc(C(F)(F)F)cc1)c1ccccc1F` (configuration not stated): 44.5 µM, 66.8 µM and 59.2 µM.
On to `O=C(O)CC(NC(=O)c1ccc(F)cc1)c1ccccc1` (configuration not stated), for which the IC50 was 35.1 µM in assay [1], more than 100 µM in the assay with MDA-MB-436 and 84.3 µM in the assay on MDA-MB-231.
The matching figures for `CC(C)(C)c1ccc(C(CC(=O)O)NS(=O)(=O)c2ccc(F)cc2)cc1` (configuration not stated): 38.5 µM, 68.9 µM and 66.2 µM.
Consider `CC(C)(C)c1ccc(C(CC(=O)O)NS(=O)(=O)c2ccc(C(F)(F)F)cc2)cc1` (configuration not stated), for which the IC50 in assay [1] is 18.4 µM; in the assay with MDA-MB-436, 60.1 µM; with MDA-MB-231 it was 53.7 µM.
As to `O=C(O)CC(NC(=O)c1ccc(Cl)cc1Cl)c1ccccc1` (configuration not stated), the figures for the IC50 (in assay [1]; in the assay on MDA-MB-436; with MDA-MB-231) were 29.3 µM, 78.2 µM and 67.2 µM, respectively.
For `O=C(O)CC(NS(=O)(=O)c1ccc(C(F)(F)F)cc1)c1ccccc1F` (configuration not stated), in that order: 11.6 µM, 55.6 µM and 47.1 µM.
The matching figures for `O=C(O)CC(NC(=O)c1ccc(F)cc1)c1ccc(Cl)cc1Cl` (configuration not stated): 17.1 µM, 55.8 µM and 58.3 µM.
For `O=C(O)CC(NS(=O)(=O)c1ccc(C(F)(F)F)cc1)c1ccc(Cl)cc1Cl` (configuration not stated), in that order: 9.5 µM, 37.6 µM and 30.4 µM.
With `O=C(O)CC(NC(=O)c1cccc(Br)c1)c1ccccc1F` (configuration not stated), the IC50 in assay [1] is more than 50 µM; in the assay with MDA-MB-436, more than 100 µM; in the assay with MDA-MB-231, more than 100 µM.
